Reference: article PMC11855827, “High-Throughput Screening of Five Compound Libraries for Anthelmintic Activity and Toxicity Leads to the Discovery of Two Flavonoid Compounds” (International Journal of Molecular Sciences, 2025)
Several values for one entry are separate records, joined by “and”; a condition that tells them apart may be missing. Identical values can stand only once. Like-named read-outs stand apart in the source and are kept apart here.

Tested on: C. elegans
[1] = Table S2, C. elegans SS assay, 110 μM, 0 h, averages of 4 data points
[2] = Table S2, C. elegans SS assay, 110 μM, 24 h, averages of 4 data points

| Molecule | Percentage of motility inhibition 0 h [1] | Percentage of motility inhibition 24 h [2] | Percentage of motility inhibition 0 h (110 µM) | Percentage of motility inhibition 24 h (110 µM) |
| --- | --- | --- | --- | --- |
| C[C@@H]1O[C@@H](OC[C@H]2O[C@@H](Oc3c(-c4ccc(O)cc4)oc4cc(O)cc(O)c4c3=O)[C@H](O)[C@@H](O)[C@@H]2O)[C@H](O)[C@H](O)[C@H]1O [Nicotiflorin] | 4% | 40% | – | – |
| COc1ccc(-c2coc3c([C@@H]4O[C@H](CO)[C@@H](O)[C@H](O)[C@H]4O)c(O)ccc3c2=O)cc1 [4'‐Methoxypuerarin] | 14% | 3% | – | – |
| Cn1c[n+]([C@@H]2O[C@H](CO)[C@@H](O)[C@H]2O)c2nc(N)[nH]c(=O)c21 [7‐Methylguanosine] | 0% | 0% | – | – |
| C[C@@H]1O[C@@H](O[C@H]2[C@H](O[C@H]3CC[C@@]4(C)[C@@H](CC[C@]5(C)[C@@H]4CC=C4[C@@H]6CC(C)(C)CC[C@]6(C(=O)O[C@@H]6O[C@H](CO[C@@H]7O[C@H](CO)[C@@H](O)[C@H](O)[C@H]7O)[C@@H](O)[C@H](O)[C@H]6O)CC[C@]45C)[C@]3(C)CO)OC[C@H](O)[C@@H]2O)[C@H](O)[C@H](O)[C@H]1O [Dipsacoside B] | – | – | 7% | 5% |
| CCC1=C[C@@H]2CN3CCc4c([nH]c5ccccc45)[C@@](C(=O)OC)(C2)[C@@H]13.O=C(O)C(O)C(O)C(=O)O [Catharanthine (Tartrate)] | – | – | 0% | 12% |
| COc1ccc2c(c1O)-c1c(O)c(OC)cc3c1[C@H](C2)[N+](C)(C)CC3.[I-] [(+)‐Magnoflorine (iodide)] | 10% | 8% | – | – |
| C=C1CC[C@@H]2[C@](C)(CO)[C@H](O)CC[C@@]2(C)[C@@H]1/C=C/C1=CCOC1=O [Dehydroandrographolide] | 0% and 4% | 7% and 9% | – | – |
| C=C(C)[C@@H]1CC[C@]2(C)[C@H](CC=C3[C@@H]4[C@@H](C)[C@H](C)CC[C@]4(C)CC[C@]32C)[C@@]1(C)CCC(=O)O [Roburic acid] | 11% | 15% | – | – |
| C=C(C)[C@@H]1CC[C@]2(C)CC[C@]3(C)[C@H](CC[C@@H]4[C@@]5(C)CC[C@H](OC(C)=O)C(C)(C)[C@@H]5CC[C@]43C)[C@@H]12 [Lupeol acetate] | 0% | 0% | – | – |
| COc1ccc2c3c1O[C@H]1C[C@@H](O)C=C[C@@]31CC[N+](C)([O-])C2 (stereo partly drawn) [Galanthamine N‐Oxide] | 3% | 4% | – | – |
| Echinocystic acid | 45% | 35% | – | – |
| CC=C1[C@H](O[C@@H]2O[C@H](CO)[C@@H](O)[C@H](O)[C@H]2O)OC=C(C(=O)OC)[C@H]1CC(=O)OC[C@H]1O[C@@H](OCCc2ccc(O)cc2)[C@H](O)[C@@H](O)[C@@H]1O (stereo in doubt) [Specnuezhenide] | 1% | 13% | – | – |
| CCN1C[C@]2(COC)CC[C@H](OC)C34C1C([C@H](OC)[C@@H]32)[C@]1(OC(C)=O)[C@@H]2[C@H]4C[C@@](O)([C@@H]2OC(=O)c2ccccc2)[C@@H](OC)[C@@H]1O [3‐Deoxyaconitine] | 9% | 0% | – | – |
| CC(C)=CCC[C@@](C)(O)[C@H]1CC[C@]2(C)[C@@H]1[C@H](O)C[C@@H]1[C@@]3(C)C[C@@H](O)[C@H](O[C@@H]4O[C@H](CO)[C@@H](O)[C@H](O)[C@H]4O[C@@H]4O[C@H](CO)[C@@H](O)[C@H](O)[C@H]4O)C(C)(C)[C@@H]3CC[C@]12C [Gypenoside LI] | 0% | 0% | – | – |
| CC(C)(C)NC(=O)[C@@H]1C[C@@H]2CCCC[C@@H]2CN1C[C@@H](O)[C@H](Cc1ccccc1)NC(=O)[C@H](CC(N)=O)NC(=O)c1ccc2ccccc2n1.CS(=O)(=O)O [Saquinavir (Mesylate)] | 0% | 10% | – | – |
